Drawing on patent US20250221988A1 (Cullgen (Shanghai), Inc., priority 2022, published 2025), this text covers IC50 for 17 compounds.

One test relates to MOLM-13 cells. The experiment in a line: Cell viability assay (CellTiter-Glo) in MOLM-13 cells. The test is classed as cell-based. The method, then: (§1) Cell Culture: RS4;11, MV4;11, MOLM-13 and other cells were cultured at 37° C. with 5% CO2 in RPMI 1640 or DMEM Medium supplemented with 10% fetal bovine serum. Cells were authenticated using the short tandem repeat (STR) assays. Mycoplasma test results were negative.
Cell viability assays: Cells were seeded at a density of 5000 cells per well in 96-well assay plates and treated with test compounds following a 8-point or 12-point 3-fold serial dilution. Three days later, cell viability was determined using the CellTiter-Glo assay kit according to the manufacturer's instructions. The dose-response curves were determined and IC50 values were calculated using the GraphPad Prism software following a nonlinear regression (least squares fit) method. […]

A further test has as its system MV4;11 cells. The test is described as follows: Cell viability assay (CellTiter-Glo) in MV4;11 cells. The test is classed as cell-based. The settings on record: read-out: MV4. As to the method: as §1
Cell viability assays: Cells were seeded at a density of 5000 cells per well in 96-well assay plates and treated with test compounds following a 8-point or 12-point 3-fold serial dilution. Three days later, cell viability was determined using the CellTiter-Glo assay kit according to the manufacturer's instructions. The dose-response curves were determined and IC50 values were calculated using the GraphPad Prism software following a nonlinear regression (least squares fit) method.
The IC50 values (nM) of each compound were determined in MV4;11 and MOLM-13 cells with or without gilteritinib (10 nM for MV4;11; and 20 nM for MOML-13) as described in the Materials and Methods subsection and calculated using the GraphPad Prism 5.0 software.

Setting [1] is: Homo sapiens, 72 h, MOLM-13 cells, compound alone, three days, read-out: MOLM-13 IC50.
[2] abbreviates: MOLM-13 cells, with gilteritinib, three days, read-out: MOLM-13 IC50 (nM) + 10 nM Gil.
[3] abbreviates: Homo sapiens, MV4-11, 72 h, MV4;11 cells, compound alone, three days, 11 IC50.
The mark [4] stands for this setting: MV4;11 cells, with 10 nM gilteritinib, three days, 11 IC50 (nM) + 10 nM Gil.

Molecules are shown by their SMILES. Like-named read-outs stand apart in the source and are kept apart here.

Regarding `Cc1cc(F)cnc1-c1cn([C@H]2C[C@H](CNc3ccc4c(c3)CN(C3CCC(=O)NC3=O)C4=O)C2)nc1C(F)F` (stereo partly drawn) [GS-668, 3-(5-(((Trans-3-(3-(difluoromethyl)-4-(5-fluoro-3-methylpyridin-2-yl)-1H-pyrazol-1-yl)cyclobutyl)methyl)amino)-1-oxoisoindolin-2-yl)piperidine-2,6-dione], the IC50 in the test with MOLM-13 cells (setting [1]), in the test with MOLM-13 cells (setting [2]), in the test on MV4;11 cells (setting [3]) and with MV4;11 cells (setting [4]) was < 10 nM each time.

Consider `O=C1CCC(N2C(=O)c3ccc(NC[C@H]4C[C@H](n5cc(Nc6ccccn6)c(C6CC6)n5)C4)cc3C2=O)C(=O)N1` (stereo partly drawn) [GS-669, 5-(((Trans-3-(3-cyclopropyl-4-(pyridin-2-ylamino)-1H-pyrazol-1-yl)cyclobutyl)methyl)amino)-2-(2,6-dioxopiperidin-3-yl)isoindoline-1,3-dione], for which the IC50 in the test on MOLM-13 cells (setting [1]) is > 1000 nM; with MOLM-13 cells (setting [2]), 100 to 1000 nM; in the test on MV4;11 cells (setting [3]) it was 100 to 1000 nM; in the test with MV4;11 cells (setting [4]), 100 to 1000 nM.

`O=C1CCC(N2C(=O)c3ccc(NC[C@H]4C[C@H](n5cc(Nc6cccnc6)c(C6CC6)n5)C4)cc3C2=O)C(=O)N1` (stereo partly drawn) [GS-670, 5-(((Trans-3-(3-cyclopropyl-4-(pyridin-3-ylamino)-1H-pyrazol-1-yl)cyclobutyl)methyl)amino)-2-(2,6-dioxopiperidin-3-yl)isoindoline-1,3-dione]: the IC50 is 100 to 1000 nM in the test with MOLM-13 cells (setting [1]), 10 to 100 nM in the test with MOLM-13 cells (setting [2]), 10 to 100 nM in the test with MV4;11 cells (setting [3]) and 10 to 100 nM in the test with MV4;11 cells (setting [4]).

For the compound `O=C1CCC(N2C(=O)c3ccc(NC[C@H]4C[C@H](n5cc(Nc6ccncc6)c(C6CC6)n5)C4)cc3C2=O)C(=O)N1` (stereo partly drawn) [GS-671, 5-(((Trans-3-(3-cyclopropyl-4-(pyridin-4-ylamino)-1H-pyrazol-1-yl)cyclobutyl)methyl)amino)-2-(2,6-dioxopiperidin-3-y)isoindoline-1,3-dione], the IC50 in the test with MOLM-13 cells (Homo sapiens, MOLM-13, 72 h, read-out: MOLM-13 IC50 (nM)) is > 1000 nM; in the test on MOLM-13 cells (read-out: MOLM-13 IC50 (nM) + 10 nM Gil, MOLM-13 cells, with gilteritinib, three days), 100 to 1000 nM; with MV4;11 cells (Homo sapiens, MV4-11, 72 h, 11 IC50 (nM)) it was > 1000 nM.

Consider `Cc1ccc2c(C3CC3)nn([C@H]3C[C@H](CNc4ccc5c(c4)C(=O)N(C4CCC(=O)NC4=O)C5=O)C3)c2n1` (stereo partly drawn) [GS-672, 5-(((Trans-3-(3-cyclopropyl-6-methyl-1H-pyrazolo[3,4-b]pyridin-1-yl)cyclobutyl)methyl)amino)-2-(2,6-dioxopiperidin-3-yl)isoindoline-1,3-dione], for which the values for the IC50 in the test with MOLM-13 cells (setting [1]), with MOLM-13 cells (setting [2]) and with MV4;11 cells (setting [3]) were > 1000 nM, 100 to 1000 nM and > 1000 nM, respectively.

As for `Cc1cnc2c(c1)c(C1CC1)nn2[C@H]1C[C@H](CNc2ccc3c(c2)C(=O)N(C2CCC(=O)NC2=O)C3=O)C1` (stereo partly drawn) [GS-673, 5-(((Trans-3-(3-cyclopropyl-5-methyl-1H-pyrazolo[3,4-b]pyridin-1-yl)cyclobutyl)methyl)amino)-2-(2,6-dioxopiperidin-3-yl)isoindoline-1,3-dione], the IC50 is > 1000 nM with MOLM-13 cells (setting [1]), 100 to 1000 nM in the test on MOLM-13 cells (setting [2]), > 1000 nM in the test with MV4;11 cells (setting [3]) and 100 to 1000 nM with MV4;11 cells (setting [4]).

As for `COc1ccc2c(C3CC3)nn([C@H]3C[C@H](CNc4ccc5c(c4)C(=O)N(C4CCC(=O)NC4=O)C5=O)C3)c2n1` (stereo partly drawn) [GS-674, 5-(((Trans-3-(3-cyclopropyl-6-methoxy-1H-pyrazolo[3,4-b]pyridin-1-yl)cyclobutyl)methyl)amino)-2-(2,6-dioxopiperidin-3-yl)isoindoline-1,3-dione], the IC50 with MOLM-13 cells (setting [1]) and with MV4;11 cells (setting [3]) was > 1000 nM each time.

Consider `O=C1CCC(N2C(=O)c3ccc(NC[C@H]4C[C@H](n5cc(-c6cc7c(cn6)cnn7C6CNC6)c(C6CC6)n5)C4)cc3C2=O)C(=O)N1` (stereo partly drawn) [GS-675, 5-(((Trans-3-(4-(1-(azetidin-3-yl)-1H-pyrazolo[4,3-c]pyridin-6-yl)-3-cyclopropyl-1H-pyrazol-1-yl)cyclobutyl)methyl)amino)-2-(2,6-dioxopiperidin-3-yl)isoindoline-1,3-dione], for which the IC50 with MOLM-13 cells (setting [1]) was > 1000 nM; with MOLM-13 cells (setting [2]), 100 to 1000 nM; with MV4;11 cells (setting [3]) it was > 1000 nM; in the test with MV4;11 cells (setting [4]), 100 to 1000 nM.

Consider `Cc1cc(F)cnc1-c1cn([C@H]2C[C@H](CNc3ccc4c(c3)CN(C3CCC(=O)NC3=O)C4=O)C2)nc1C1CC1` (stereo partly drawn) [GS-676, 3-(5-(((Trans-3-(3-cyclopropyl-4-(5-fluoro-3-methylpyridin-2-yl)-1H-pyrazol-1-yl)cyclobutyl)methyl)amino)-1-oxoisoindolin-2-yl)piperidine-2,6-dione], for which the IC50 in the test with MOLM-13 cells (setting [1]), in the test on MOLM-13 cells (setting [2]), in the test with MV4;11 cells (setting [3]) and in the test on MV4;11 cells (setting [4]) was < 10 nM throughout.

As to `Cc1nc(-c2cn([C@H]3C[C@H](CNc4ccc5c(c4)CN(C4CCC(=O)NC4=O)C5=O)C3)nc2C(F)F)ccc1F` (stereo partly drawn) [GS-677, 3-(5-(((Trans-3-(3-(difluoromethyl)-4-(5-fluoro-6-methylpyridin-2-yl)-1H-pyrazol-1-yl)cyclobutyl)methyl)amino)-1-oxoisoindolin-2-yl)piperidine-2,6-dione], the IC50 with MOLM-13 cells (setting [1]), in the test with MOLM-13 cells (setting [2]), in the test with MV4;11 cells (setting [3]) and with MV4;11 cells (setting [4]) was < 10 nM each time.

Regarding `Cn1ncc2cnc(-c3cn([C@H]4C[C@H](CNc5ccc6c(c5)CN(C5CCC(=O)NC5=O)C6=O)C4)nc3C3CC3)cc21` (stereo partly drawn) [GS-678, 3-(5-(((Trans-3-(3-cyclopropyl-4-(1-methyl-1H-pyrazolo[4,3-c]pyridin-6-yl)-1H-pyrazol-1-yl)cyclobutyl)methyl)amino)-1-oxoisoindolin-2-yl)piperidine-2,6-dione], the IC50 with MOLM-13 cells (setting [1]), in the test with MOLM-13 cells (setting [2]), with MV4;11 cells (setting [3]) and in the test with MV4;11 cells (setting [4]) was < 10 nM throughout.

Turning to `Cc1ccnc2c1c(C1CC1)nn2[C@H]1C[C@H](CNc2ccc3c(c2)C(=O)N(C2CCC(=O)NC2=O)C3=O)C1` (stereo partly drawn) [GS-679, 5-(((Trans-3-(3-cyclopropyl-4-methyl-1H-pyrazolo[3,4-b]pyridin-1-yl)cyclobutyl)methyl)amino)-2-(2,6-dioxopiperidin-3-yl)isoindoline-1,3-dione], the IC50 with MOLM-13 cells (setting [1]) is > 1000 nM; in the test on MOLM-13 cells (setting [2]), 100 to 1000 nM; in the test on MV4;11 cells (setting [3]), > 1000 nM; in the test on MV4;11 cells (setting [4]) it was 100 to 1000 nM.

In the case of `CN1CC(n2cc3cnc(-c4cn([C@H]5C[C@H](CNc6ccc7c(c6)C(=O)N(C6CCC(=O)NC6=O)C7=O)C5)nc4C4CC4)cc3n2)C1` (stereo partly drawn) [GS-680, 5-(((Trans-3-(3-cyclopropyl-4-(2-(1-methylazetidin-3-yl)-2H-pyrazolo[4,3-c]pyridin-6-yl)-1H-pyrazol-1-yl)cyclobutyl)methyl)amino)-2-(2,6-dioxopiperidin-3-yl)isoindoline-1,3-dione], the IC50 was 10 to 100 nM in the test with MOLM-13 cells (setting [1]), < 10 nM in the test on MOLM-13 cells (setting [2]), < 10 nM with MV4;11 cells (setting [3]) and < 10 nM in the test with MV4;11 cells (setting [4]).

Turning to `COc1ccnc2c1c(C1CC1)nn2[C@H]1C[C@H](CNc2ccc3c(c2)C(=O)N(C2CCC(=O)NC2=O)C3=O)C1` (stereo partly drawn) [GS-681, 5-(((Trans-3-(3-cyclopropyl-4-methoxy-1H-pyrazolo[3,4-b]pyridin-1-yl)cyclobutyl)methyl)amino)-2-(2,6-dioxopiperidin-3-yl)isoindoline-1,3-dione], the IC50 in the test with MOLM-13 cells (setting [1]) is > 1000 nM; in the test with MOLM-13 cells (setting [2]), 10 to 100 nM; in the test on MV4;11 cells (setting [3]), > 1000 nM; in the test with MV4;11 cells (setting [4]), 100 to 1000 nM.

In the case of `COc1cnc2c(c1)c(C1CC1)nn2[C@H]1C[C@H](CNc2ccc3c(c2)C(=O)N(C2CCC(=O)NC2=O)C3=O)C1` (stereo partly drawn) [GS-682, 5-(((Trans-3-(3-cyclopropyl-5-methoxy-1H-pyrazolo[3,4-b]pyridin-1-yl)cyclobutyl)methyl)amino)-2-(2,6-dioxopiperidin-3-yl)isoindoline-1,3-dione], the IC50 is 100 to 1000 nM with MOLM-13 cells (setting [1]), 10 to 100 nM in the test on MOLM-13 cells (setting [2]), 10 to 100 nM in the test on MV4;11 cells (setting [3]) and < 10 nM in the test with MV4;11 cells (setting [4]).

As for `O=C1CCC(N2C(=O)c3ccc(NC[C@H]4C[C@H](n5cc(-c6ncc(F)cc6N6CCNCC6)c(C6CC6)n5)C4)cc3C2=O)C(=O)N1` (stereo partly drawn) [GS-683, 5-(((Trans-3-(3-cyclopropyl-4-(5-fluoro-3-(piperazin-1-yl)pyridin-2-yl)-1H-pyrazol-1-yl)cyclobutyl)methyl)amino)-2-(2,6-dioxopiperidin-3-yl)isoindoline-1,3-dione], the IC50 with MOLM-13 cells (setting [1]) and with MV4;11 cells (setting [3]) was > 1000 nM each time.

For the compound `O=C1CCC(N2C(=O)c3ccc(NC[C@H]4C[C@H](n5cc(-c6ccc7[nH]ncc7n6)c(C6CC6)n5)C4)cc3C2=O)C(=O)N1` (stereo partly drawn) [GS-684, 5-(((Trans-3-(3-cyclopropyl-4-(1H-pyrazolo[4,3-b]pyridin-5-yl)-1H-pyrazol-1-yl)cyclobutyl)methyl)amino)-2-(2,6-dioxopiperidin-3-yl)isoindoline-1,3-dione], the IC50 in the test with MOLM-13 cells (setting [1]) is 100 to 1000 nM; with MOLM-13 cells (setting [2]), 10 to 100 nM; with MV4;11 cells (setting [3]) it was 10 to 100 nM; in the test on MV4;11 cells (setting [4]) it was 10 to 100 nM.
